Read-outs that look alike come from different tables or passages of the source.
What was measured:
5HT2B [1] = target: T1, 5HT2B (Homo sapiens, UniProt P41595); test: Competitive radioligand binding, 5HT2B; design: expressed in transfected cells; host or cells: CHO (membrane fraction); conditions: CHO membranes, 3H-5-HT 4 nM; read-out: pIC50 5HT2B (converted)
Procedure: Competitive radioligand binding assays were used to determine the affinity of the test compounds for a particular receptor. Various concentrations of the non-labelled test compound were added to the incubation mixture with the membrane fraction, containing the receptor of interest, and a fixed low concentration (nM) of the radioligand. During the incubation the radioligand bound to the receptor, but this was inhibited by the non-labelled test compound in proportion to its binding affinity and concentration.
Cell lines were established that stably express the human variant of the receptor under investigation after transfection with the appropriate cDNA (Table 1). Transfected cells were grown under standard culture conditions, and membrane fractions were obtained upon centrifugation and homogenisation of the cells. Optimal membrane dilutions for binding studies were determined and aliquots were stored at −70° C. until use. In a 96-well plate format, the appropriate radioligand was added to the membrane preparation containing the receptor under investigation. Compound solutions were prepared in DMSO, and diluted 100-fold into the multiwell plate to a final test concentration of 10^−9 to 10^−5 M. After incubation with the test compound, the unbound radioligand was removed by filtration on G/F filters with a Filtermate 96. Microscint™ was added to the washed filter plates and the radioactivity bound to the receptor was measured by liquid scintillation counting in a TopCount (Packard). To measure the Non-Specific Binding (NSB), a high concentration of the non-radiolabeled ligand was added to wells containing the membrane fraction and the radioligand.
From this, the pIC50 value (inhibitory concentration causing 50% displacement of specific binding) was determined, as well as an estimate of the slope of the plot (Hill coefficient).

5HT2B [2] = target: T1, 5HT2B; test: 5-HT2B antagonism, FLIPR intracellular calcium in transfected CHO-K1 cells; format: cell-based; design: expressed in transfected cells; host or cells: CHO-K1 (ECACC); conditions: for IC50: CHO-K1 cells, response to 0.1 nM serotonin, Fluo-3 FLIPR; for Kb: modified Cheng Prusoff equation from IC50, read-out: 5-HT2B antagonism KB (apparent dissociation constant)
Procedure: CHO-K1 (ECACC) cells were stably transfected with human 5-HT2B receptor cDNA subcloned into pCDNA3.1 using the calcium phosphate method. Stably transfected cell lines were selected using G-418, and clonal cell lines were developed by limit dilution. Cell lines were cultured in Dulbecco's modified Eagle Medium (DMEM) containing 10% heat inactivated dialyzed foetal bovine serum (FBS), 1% penicillin-streptomycin, 1% L-glutamine and 1% non-essential amino acids.
Confluent monolayers plated into black 96 well plates with clear bottoms were loaded with 4 μM Fluo-3-AM for 90 min at 37° C. in Hanks balanced salt solution supplemented with 20 mM HEPES and 2.5 mM probenecid. After washing, the test compound was added to the cells and maximal fluorescence in response to 0.1 nM serotonin was recorded using a fluorometric imaging plate reader (FLIPR) to detect changes in intracellular calcium levels.
The maximal fluorescence recorded in the presence of the test compound was expressed as a percent of the maximal fluorescence response to the agonist serotonin (0.1 nM). […] The apparent dissociation constant (KB) was calculated using the modified Cheng Prusoff equation (KB=IC50/(1+(A/EC50A)), where A=concentration of serotonin, and EC50A=EC50 value of serotonin in this assay). (Porter et al. (1999), Br. J. Pharmacol., 128: 13-20)

hERG potassium channel = target: T2, hERG potassium channel (Homo sapiens, UniProt Q12809); test: hERG-transfected HEK293 cells using a Patch Express apparatus; format: cell-based; conditions: bracketed value in cell = % block by vehicle
T2 construct: expressed in transfected cells; host or cells: HEK293
Procedure: Experiments were performed using HEK293 cells stably expressing the hERG potassium channel. Cells were grown at 37° C. and 5% CO2 in culture flasks in MEM Medium supplemented with 10% heat-inactivated fetal bovine serum, 1% L-Glutamine-Penicillin-Streptomycin-solution, 1% non-essential amino acids (100×), 1% sodium pyruvate (100 mM) and 0.8% Geneticin (50 mg/ml). Before use the cells were subcultured in MEM medium in the absence of 5 ml L-Glutamine-Penicillin-Streptomycin. For use in the automated patch-clamp system PatchXpress 7000A (Axon Instruments) cells were harvested to obtain cell suspension of single cells. Extracellular solution contained (mM): 150 NaCl, 4 KCl, 1 MgCl2, 1.8 CaCl2, 10 HEPES, 5 Glucose (pH 7.4 with NaOH). Pipette solution contained (mM): 120 KCl, 10 HEPES, 5 EGTA, 4 ATP-Mg2, 2 MgCl2, 0.5 CaCl2 (pH 7.2 with KOH).
Patch-clamp experiments were performed in the voltage-clamp mode and whole-cell currents were recorded with an automated patch-clamp assay utilizing the PatchXpress 7000A system (Axon Instruments). Current signals were amplified and digitized by a Multiclamp amplifier, stored and analyzed by using the PatchXpress, DataXpress software and Igor 5.0 (Wavemetrics).
The holding potential was −80 mV. The hERG current (K+-selective outward current) was determined as the maximal tail current at −40 mV after a 2 second depolarization to +60 mV. Pulse cycling rate was 15 s. Before each test pulse a short pulse (0.5 s) from the holding potential to −60 mV was given to determine (linear) leak current. After establishing whole-cell configuration and a stability period, the vehicle (aqueous DMSO control) was applied for 5 minutes followed by the test substance by increasing concentrations of 10^−7 M, 3×10^−7 M and 3×10^−6 M.
Each concentration of the test substance was applied twice. The effect of each concentration was determined after 5 min as an average current of 3 sequential voltage pulses. To determine the extent of block the residual current was compared with vehicle pre-treatment. Data are expressed as % block at the indicated concentrations in Table 4. The values between brackets refer to % block by the vehicle.

[3] = Cardio-hemodynamic, cardio-electrophysiological, EEG and pulmonary effects in ventilated, anesthetized dogs; format: in vivo, dog; conditions: Beagle, plasma, iv, dog, 5-min i.v. infusion
Procedure: The animals were anesthetized with a mixture of 0.015 mg/kg i.v. scopolamine and 0.075 mg/kg i.v. lofentanil, and relaxed with succinylcholine (5 mg/kg i.v.) followed by a continuous i.v. infusion of 1.5 mg/kg/h of etomidate and small additional doses of fentanyl (0.025 mg/kg i.v.) were given at 60 min intervals. The animals were ventilated and prepared for measurements of the surface ECG, aortic-, pulmonary- and left ventricular blood pressure, carotid blood flow, monophasic action potential, body temperature, blood gasses and EEG (see Van Deuren et al, J Pharmacol Toxicol Methods; 2009; 60: 11-23). Compound (−)-17 was dissolved in 20% hydroxypropyl-cyclodextrin with NaOH, HCl and mannitol in pyrogen-free water and administered intravenously (1 ml/kg) in increasing doses (0.16, 0.32, 0.63, 1.25, 2.5 and 5 mg/kg) over a period of 5 min at 30-min intervals. Plasma concentrations of Compound (−)-17 were measured before and at the end of each infusion. Corresponding volumes of vehicle were administered according to the same protocol in a second group of animals.

T1 sequence (P41595 whole entry): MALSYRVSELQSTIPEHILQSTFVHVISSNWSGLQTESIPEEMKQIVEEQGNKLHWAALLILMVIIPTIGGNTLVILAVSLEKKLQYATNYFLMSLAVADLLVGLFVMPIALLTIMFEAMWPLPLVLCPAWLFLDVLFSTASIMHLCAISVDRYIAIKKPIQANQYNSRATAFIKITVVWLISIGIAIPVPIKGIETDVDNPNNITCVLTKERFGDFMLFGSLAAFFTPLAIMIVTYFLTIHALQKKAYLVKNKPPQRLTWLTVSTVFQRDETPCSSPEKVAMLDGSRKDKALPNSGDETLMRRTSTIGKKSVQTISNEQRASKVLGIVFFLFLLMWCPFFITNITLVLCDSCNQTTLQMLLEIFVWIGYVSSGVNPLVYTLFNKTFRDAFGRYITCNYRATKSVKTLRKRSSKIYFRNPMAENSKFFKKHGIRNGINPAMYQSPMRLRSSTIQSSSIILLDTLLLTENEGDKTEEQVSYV
T2 sequence (Q12809 whole entry): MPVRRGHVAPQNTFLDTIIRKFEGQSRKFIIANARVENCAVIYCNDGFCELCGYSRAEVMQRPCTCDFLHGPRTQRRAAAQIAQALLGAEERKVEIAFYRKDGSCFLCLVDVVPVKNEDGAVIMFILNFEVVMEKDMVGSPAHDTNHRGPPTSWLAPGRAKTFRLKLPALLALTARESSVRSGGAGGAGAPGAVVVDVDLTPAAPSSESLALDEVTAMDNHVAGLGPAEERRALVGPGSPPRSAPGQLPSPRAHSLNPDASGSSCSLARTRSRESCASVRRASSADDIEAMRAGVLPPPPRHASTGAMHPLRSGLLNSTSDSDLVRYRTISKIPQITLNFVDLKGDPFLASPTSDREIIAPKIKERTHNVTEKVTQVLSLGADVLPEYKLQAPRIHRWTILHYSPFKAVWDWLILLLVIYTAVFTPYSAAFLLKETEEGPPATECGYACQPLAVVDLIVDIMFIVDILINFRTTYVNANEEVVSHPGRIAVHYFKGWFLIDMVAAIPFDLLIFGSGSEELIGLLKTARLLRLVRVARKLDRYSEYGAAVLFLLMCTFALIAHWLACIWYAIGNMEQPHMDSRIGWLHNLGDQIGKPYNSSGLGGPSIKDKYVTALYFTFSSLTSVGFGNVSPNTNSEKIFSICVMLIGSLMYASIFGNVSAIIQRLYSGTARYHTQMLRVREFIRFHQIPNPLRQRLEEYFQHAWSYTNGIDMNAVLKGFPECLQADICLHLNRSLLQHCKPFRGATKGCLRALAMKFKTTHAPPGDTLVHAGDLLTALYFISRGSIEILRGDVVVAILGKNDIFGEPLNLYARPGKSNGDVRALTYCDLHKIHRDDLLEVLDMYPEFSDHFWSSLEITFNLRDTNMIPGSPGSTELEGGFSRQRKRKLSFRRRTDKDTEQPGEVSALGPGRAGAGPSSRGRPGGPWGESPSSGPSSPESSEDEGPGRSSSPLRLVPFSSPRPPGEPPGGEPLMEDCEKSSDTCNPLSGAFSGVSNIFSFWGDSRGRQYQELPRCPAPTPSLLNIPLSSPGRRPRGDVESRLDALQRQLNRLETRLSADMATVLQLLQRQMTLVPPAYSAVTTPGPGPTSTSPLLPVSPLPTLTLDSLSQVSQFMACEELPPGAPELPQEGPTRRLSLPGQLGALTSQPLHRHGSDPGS

| SMILES | IC50 (5HT2B [1]) | IC50 (5HT2B [2]) | Kb (5HT2B [2]) | % block of the hERG channel (hERG potassium channel; 100 nM) | % block of the hERG channel (hERG potassium channel; 300 nM) | % block of the hERG channel (hERG potassium channel; 3000 nM) | Cmax ([3]; dose 1.25 mg/kg (increasing doses, 30-min intervals), read-out: Median plasma level (Cmax)) | Cmax ([3]; dose 2.5 mg/kg (increasing doses, 30-min intervals), read-out: Median plasma level (Cmax)) | Cmax ([3]; dose 5 mg/kg (increasing doses, 30-min intervals; total dose 9.86 mg/kg), read-out: Median plasma level (median Cmax)) |
| --- | --- | --- | --- | --- | --- | --- | --- | --- | --- |
| COc1cc(N)c(Cl)cc1C(=O)N[C@H]1CCN(CCCOc2ccc(F)cc2)C[C@H]1F (racemic) [(±)-12, cis-4-amino-5-chloro-N-{3-fluoro-1-[3-(4-fluorophenoxy)-propyl]-piperidin-4-yl}-2-methoxybenzamide] | 66.1 nM | 12 nM | 4.2 nM | 40 (7) % | 73 (15) % | 96 (21) % |  |  |  |
| COc1cc(N)c(Cl)cc1C(=O)N[C@@H]1CCN(CCCOc2ccc(F)cc2)C[C@H]1F (single isomer, unassigned) [(−)-7, trans-4-amino-5-chloro-N-{3-fluoro-1-[3-(4-fluorophenoxy)-propyl]-piperidin-4-yl}-2-methoxybenzamide] | 251 nM |  |  |  |  |  |  |  |  |
| COc1cc(N)c(Cl)cc1C(=O)N[C@H]1CCN(CCCOc2ccc(F)cc2)C[C@H]1F (single isomer, unassigned) [(−)-12, cis-4-amino-5-chloro-N-{3-fluoro-1-[3-(4-fluorophenoxy)-propyl]-piperidin-4-yl}-2-methoxybenzamide] | 72.4 nM |  |  |  |  |  |  |  |  |
| COc1cc(N)c(Cl)cc1C(=O)NC1CCN(CCCOc2ccc(F)cc2)CC1(F)F (racemic) [(±)-17, 4-amino-5-chloro-N-{3,3-difluoro-1-[3-(4-fluorophenoxy)-propyl]-piperidin-4-yl}-2-methoxybenzamide] | 13.8 nM |  |  | 9 (7) % | 17 (15) % | 58 (21) % |  |  |  |
| COc1cc(N)c(Cl)cc1C(=O)N[C@@H]1CCN(CCCOc2ccc(F)cc2)C[C@H]1F (racemic) [(±)-7, trans-4-amino-5-chloro-N-{3-fluoro-1-[3-(4-fluorophenoxy)-propyl]-piperidin-4-yl}-2-methoxybenzamide] | 107 nM | 60 nM | 20 nM | 35 (7) % | 62 (15) % | 94 (21) % |  |  |  |
| COc1cc(N)c(Cl)cc1C(=O)NC1CCN(CCCOc2ccc(F)cc2)CC1(F)F (single isomer, unassigned) [Compound (−)-17, 4-amino-5-chloro-N-{3,3-difluoro-1-[3-(4-fluorophenoxy)-propyl]-piperidin-4-yl}-2-methoxybenzamide] | 7.24 nM | 1.6 nM | 0.55 nM | 3 (7) % | 11 (10) % | 47 (11) % | 5200 ng/mL | 9550 ng/mL | 20400 ng/mL |
| COc1cc(N)c(Cl)cc1C(=O)N[C@H]1CCN(CCCOc2ccc(F)cc2)C[C@H]1F (single isomer, unassigned) [(+)-12, cis-4-amino-5-chloro-N-{3-fluoro-1-[3-(4-fluorophenoxy)-propyl]-piperidin-4-yl}-2-methoxybenzamide] | 148 nM |  |  |  |  |  |  |  |  |
| COc1cc(N)c(Cl)cc1C(=O)N[C@@H]1CCN(CCCOc2ccc(F)cc2)C[C@H]1F (single isomer, unassigned) [(+)-7, trans-4-amino-5-chloro-N-{3-fluoro-1-[3-(4-fluorophenoxy)-propyl]-piperidin-4-yl}-2-methoxybenzamide] | 129 nM |  |  |  |  |  |  |  |  |
| COc1cc(N)c(Cl)cc1C(=O)NC1CCN(CCCOc2ccc(F)cc2)CC1(F)F (single isomer, unassigned; (+)) [(+)-17, 4-amino-5-chloro-N-{3,3-difluoro-1-[3-(4-fluorophenoxy)-propyl]-piperidin-4-yl}-2-methoxybenzamide] | 51.3 nM | 33 nM | 11 nM | 14 (7) % | 21 (10) % | 52 (11) % |  |  |  |
